Consider two molecules from US20080260817A1, “Compositions for the Treatment of Inflammation and Pain Using a Combination of a Cox-2 Selective Inhibitor and a Ltb4 Receptor Antagonist” (priority 2004, published 2008).

The structures appear in SMILES notation.

Type in all cases: in vivo
Test [1] deals with collagen-induced arthritis in male DBA/1 mice. The experiment in a line: Collagen-induced arthritis in mice (incidence, severity, weight). As to conditions: for Weight: in g (unit assumed); for % Incidence: individual inhibitors in the comparison experiment. On the procedure: Arthritis is induced in 8-12 week old male DBA/1 mice by injection of 50 micrograms of chick type II collagen (CII) in complete Freunds adjuvant (Sigma) on day 0 at the base of the tail as described in J. Stuart, Annual Rev. Immunol., 2, 199 (1984). Compounds are prepared as a suspension in 0.5% methylcelluose (Sigma, St. Louis, Mo.), 0.025% Tween 20 (Sigma). The COX-2 inhibitors (Example 1 and 2) and LTB4 receptor antagonist (Example 3) are administered alone or a COX-2 inhibitor and an LTB4 receptor antagonist in combination. The compounds are administered in non-arthritic animals by gavage in a volume of 0.1 mL beginning on day 20 post collagen injection and continuing daily until final evaluation on day 55. Animals are boosted on day 21 with 50 micrograms of collagen (CII) in incomplete Freunds adjuvant. The animals are subsequently evaluated several times each week for incidence and severity of arthritis until day 56. Any animal with paw redness or swelling is counted as arthritic. Scoring of severity is carried out using a score of 0-3 for each paw (maximal score of 12/mouse) as described in P. Wooley, et al., Trans. Proc., 15, 180 (1983). The animals are measured for incidence of arthritis and severity in the animals where arthritis is observed. The incidence of arthritis is determined at a gross level by observing the swelling or redness in the paw or digits. Severity is measured with the following guidelines. Briefly, animals displaying four normal paws, i.e., no redness or swelling are scored 0. Any redness or swelling of digits or the paw is scored as 1. Gross swelling of the whole paw or deformity is scored as 2. Ankylosis of joints is scored as 3.
Eight- to twelve-week old male DBA/1 mice were injected at the base of the tail with 50 micrograms of chick type II collagen in CFA. 21 days later, animals were boosted with 50 micrograms chick type II collagen in IFA. […] On day 56 animals were evaluated for arthritis. Any animals displaying inflammation in the paw were included as positive for incidence. In addition, paw swelling was graded on a standard scale of 0-3/paw (total score of 12/animal).

Test [2] concerns zymosan-stimulated air pouch, cells infiltrated per pouch. The experiment in a line: Murine air pouch model, 2 hour zymosan. As to conditions: Table 7 (FIG. 1); female Balb/c mice; PO BID from day 5; pouch lavage 2 hours after 1% zymosan on day 7; 30 mpk COX-2 Inhibitor, 300mpk LTB4 RA, alone or combined. On the procedure: In the present invention, the anti-inflammatory effects of COX-2 inhibitors and LTB4 inhibitors, both alone and together, can be evaluated using the mouse air pouch model (see Example 1 and FIG. 1). Following the addition of a COX-2 inhibitor, or an LTB4 inhibitor, or both, to a zymosan-stimulated air pouch, results may be reported as the number of cells that have infiltrated per pouch as an indicator of inflammation.
Female Balb/c mice age 8-12 weeks are injected with approximately 5 milliliters of air subcutaneous using a 10 milliliter syringe with a 27-gauge needle and a 0.2 micron acrodisc filter. The animals are anesthetized with CO2/O2 mix, and then the air injection is made subcutaneously in the intrascapular region of the mouse. Animals' pouches are reinflated every 2-3 days with approximately 2-3 milliliters of air, same as above. Dosing of each compound, including Vehicle (0.5% Methylcellulose+0.025% Tween 80) or a COX-2 inhibitor (compound C-1, 15 mpk, BID), or an LTB4 receptor antagonist (compound L-2, 150 mpk, BID), or the COX-2 inhibitor combined with the LTB4 receptor antagonist (compound C-1, 30 mpk+compound L-2 150 mpk BID), starting on day 5 at 6 am. Compounds are given orally (PO) and dosed BID in a volume of 0.2 milliliters per/dose. […] Total cells/mouse is calculated using a coulter counter. […]

Test [3] deals with collagen-induced arthritis in male DBA/1 mice. The experiment in a line: Collagen-induced arthritis in mice (incidence, severity, weight). As to conditions: Table 4 (FIG. 2); evaluated day 56; treated from day 21; compound C-1 15 mpk bid, compound L-2 150 mpk bid, alone or combined.
Setting [4] is: Table 4 (FIG. 2), C-1 15 mpk bid, L-2 150 mpk bid, alone or combined.
[5] abbreviates: Table 4 (FIG. 2), day 56, paw swelling graded 0-3/paw, total score of 12/animal, C-1 15 mpk bid, L-2 150 mpk bid, alone or combined.
[6] abbreviates: Table 6 (FIG. 4), doses not given.
[7] abbreviates: Table 6 (FIG. 4), score 0-3/paw, total 12/animal, doses not given.

As to `Cc1ccc(-c2cc(C(F)(F)F)nn2-c2ccc(S(N)(=O)=O)cc2)cc1` [COX-2 Inhib., celecoxib], the Weight in test [1] (setting [4]) and in test [1] (setting [6]) was 24.66 in each case. In addition, the Severity in test [1] (setting [5]) and in test [1] (setting [7]) was 5.1 in each case. For the same molecule, the “% Incidence” value in test [1] (setting [6]) and in test [3] was 100% each time. For the same molecule, the “Total Cells/Mouse” value in test [2] is on record as 40600000.
Take `O=C(O)C1(c2ccc3c(c2)OCC(Cc2ccc(-c4ccccc4)cc2)[C@H]3O)CCCC1` (stereo partly drawn) [LTB4 ra, 1-[3-([1,1′-biphenyl]-4-ylmethyl)-3,4-dihydro-4-hydroxy-2H-1-benzopyran-7-yl]-cyclopentanecarboxylic acid, (3S-trans)]: the Weight in test [1] (setting [4]) and in test [1] (setting [6]) was 26.77 in each case. The Severity in test [1] (setting [5]) and in test [1] (setting [7]) was 2.7 throughout. In addition, the “% Incidence” value in test [1] (setting [6]) and in test [3] was 90% each time. In addition, in test [2], the “Total Cells/Mouse” value is 38900000.
